Assay results as given in patent US20100215747A1, “NANOPARTICLES COMPRISING IONIZABLE, POORLY WATER SOLUBLE CELLULOSIC POLYMERS” (priority 2007, published 2010).
≈ marks a conversion by molar mass, not a printed value. Where two headings read alike, the source gives them in different places.

Experiments:
[1] = Procedure: By “solids concentration” is meant the amount of solid polymer added to the PBS solution to measure the solubility of the polymer in the PBS solution. An appropriate PBS solution is an aqueous solution comprising 20 mM sodium phosphate (Na2HPO4), 47 mM potassium phosphate (KH2PO4), 87 mM NaCl, and 0.2 mM KCl, adjusted to pH 6.5 with NaOH. A test to determine whether the polymer is poorly water soluble may be performed as follows. The polymer is initially present in bulk form with average particle sizes of greater than 1 micron. The solid polymer alone is added to a PBS solution to achieve a solids concentration of 0.2 mg/mL polymer in the PBS solution. The PBS solution is stirred for approximately 1 hour at room temperature. Next, a nylon 0.45 μm filter is weighed, and the polymer solution is filtered. The filter is dried overnight at 40° C., and weighed the following morning. The amount of polymer dissolved is calculated from the amount of polymer added to the PBS solution minus the amount of polymer remaining on the filter (mg).
The degree of water solubility of Polymers 2, 3, and 5 were evaluated as follows. […] The amount of dissolved polymer was calculated from amount of polymer added to the PBS solution minus the amount of polymer remaining on the filter (mg). […]

[2] = Solubility of drug in water; format: physicochemical
[3] = Log P value of drug; format: physicochemical; conditions: octanol/water
Description: The first property of hydrophobic drugs is that they are extremely hydrophobic. Log P, defined as the base 10 logarithm of the ratio of the drug solubility in octanol to the drug solubility in water, is a widely accepted measure of hydrophobicity. By “extremely hydrophobic” is meant that the Log P value of the drug is at least 4.0, preferably at least 4.5, and most preferably at least 5.0. Log P may be measured experimentally or calculated using methods known in the art. When using a calculated value for Log P, the highest value calculated using any generally accepted method for calculating Log P is used. Calculated Log P values are often referred to by the calculation method, such as C log P, A log P, and M log P. The Log P may also be estimated using fragmentation methods, such as Crippen's fragmentation method (27 J. Chem. Inf. Comput. Sci. 21 (1987)); Viswanadhan's fragmentation method (29 J. Chem. Inf. Comput. Sci. 163 (1989)); or Broto's fragmentation method (19 Eur. J. Med. Chem.-Chim. Theor. 71 (1984). Preferably the Log P value is calculated by using the average value estimated using Crippen's, Viswanadhan's, and Broto's fragmentation methods.

Compound | Solubility (mg/mL) at pH 6.5 [1] [mg/mL] | solubility ([2]; read-out: solubility in water) [µg/mL] | logP [3] | other results
cellulose acetate trimellitate [CP5] | 0.2 |  |  | 
CC[C@@H]1C[C@H](N(Cc2cc(C(F)(F)F)cc(C(F)(F)F)c2)C(C)=O)c2cc(C(F)(F)F)ccc2N1C(=O)OC(C)C [Drug 2, [2R,4S]-4-[acetyl-(3,5-bis-trifluoromethyl-benzyl)-amino]-2-ethyl-6-trifluoromethyl-3,4-dihydro-2H-quinoline-1-carboxylic acid isopropyl ester] |  | < 0.01 |  | 
O=C1Cc2cc(CCN3CCN(c4nsc5ccccc45)CC3)c(Cl)cc2N1 [Drug 4] |  | ~0.15 (≈ 0.363 µM) | ~3.6 | 
Cc1ccc(-c2cc(C(F)(F)F)nn2-c2ccc(S(N)(=O)=O)cc2)cc1 [Drug 1, 4-[5-(4-methylphenyl)-3-(trifluoromethyl)-1H-pyrazol-1-yl]benzenesulfonamide] |  | ~3.5 (≈ 9.18 µM) |  | 
carboxy methyl ethyl cellulose [CP6] | 0.2 |  |  | 
O=C1NC(=O)C(c2ccccc2)(c2ccccc2)N1 [Drug 3, diphenylhydantoin] |  |  | 2.47 | solubility ([2]; pH 7.5, aqueous buffer, read-out: solubility in water at pH 7.5): ~22 µg/mL (≈ 87.2 µM)
